The source of these data is US7994185B2, “Benzene sulfonamide thiazole and oxazole compounds” (Glaxo Smith Kline LLC, priority 2008, dated 2011).

The structures appear in SMILES notation. pIC50: −log10 of the molar value. Read-outs that look alike come from different tables or passages of the source. Where only a bound is given, the exact number is not on record here.

Assay [1] relates to Human colon tumor cells (Colo205). The assay is described as follows: Cell growth inhibition assay (CellTiter-Glo), Colo205. The assay is classed as cell-based. In outline: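 Growth is estimated from total cellular ATP measured by CellTiter-Glo luminescence after a 3-day compound exposure at 37 °C. Compounds are tested as 1:3 dilution series in 0.2% final DMSO, with inhibition expressed relative to vehicle-treated wells.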

The target in assay [2] is T1, BRAFV600E full-length (amino acids 2-766) (Homo sapiens, UniProt P15056, V600E).
T1 construct: His6-tagged BRAFV600E full-length (amino acids 2-766); His6; made in house; host or cells: baculovirus expression system (insect cells)
Put plainly: B-Raf Accelerated MEK ATPase assay (BRAMA). In kind it is biochemical. The conditions noted are these: categorized; for IC50: Table 1b, read-out: B-Raf pIC50 (converted). In outline:
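Coupled-enzyme readout: ADP generated by MEK-mediated ATP hydrolysis, uncoupled from ERK phosphorylation, is linked to NADH oxidation through pyruvate kinase and lactate dehydrogenase.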

Assay [3] concerns Human melanoma cancer cells (SK-MEL-28). Put plainly: Cell growth inhibition assay (CellTiter-Glo), SK-MEL-28. The assay is classed as cell-based. In general terms: ATP-based viability assays read luminescence as a measure of living cells.
The mark [4] stands for this setting: COLO 205, 72 h, Table 2a, 3 days incubation, read-out: Activity in Colo205 Tumor Cells.
Setting [5] is: COLO 205, Table 2b, later runs, average for the one or more runs, categorized, read-out: IC50 for Colo205.
[6] abbreviates: B-Raf Activity, Table 1a, highest pIC50 for the one or more runs.
Setting [7] is: later runs, average pIC50 for the one or more runs.
Where [8] appears, read: SK-MEL-28, 72 h, Table 3a, 3 days incubation, read-out: Activity in SK-MEL-28 Tumor Cells.
Setting [9] is: SK-MEL-28, Table 3b, later runs, average for the one or more runs, categorized, read-out: IC50 for SK-MEL-28.
Where [10] appears, read: B-Raf pIC50, Table 1b, later runs, average pIC50 for the one or more runs.

T1 sequence (P15056 2-766 V600E): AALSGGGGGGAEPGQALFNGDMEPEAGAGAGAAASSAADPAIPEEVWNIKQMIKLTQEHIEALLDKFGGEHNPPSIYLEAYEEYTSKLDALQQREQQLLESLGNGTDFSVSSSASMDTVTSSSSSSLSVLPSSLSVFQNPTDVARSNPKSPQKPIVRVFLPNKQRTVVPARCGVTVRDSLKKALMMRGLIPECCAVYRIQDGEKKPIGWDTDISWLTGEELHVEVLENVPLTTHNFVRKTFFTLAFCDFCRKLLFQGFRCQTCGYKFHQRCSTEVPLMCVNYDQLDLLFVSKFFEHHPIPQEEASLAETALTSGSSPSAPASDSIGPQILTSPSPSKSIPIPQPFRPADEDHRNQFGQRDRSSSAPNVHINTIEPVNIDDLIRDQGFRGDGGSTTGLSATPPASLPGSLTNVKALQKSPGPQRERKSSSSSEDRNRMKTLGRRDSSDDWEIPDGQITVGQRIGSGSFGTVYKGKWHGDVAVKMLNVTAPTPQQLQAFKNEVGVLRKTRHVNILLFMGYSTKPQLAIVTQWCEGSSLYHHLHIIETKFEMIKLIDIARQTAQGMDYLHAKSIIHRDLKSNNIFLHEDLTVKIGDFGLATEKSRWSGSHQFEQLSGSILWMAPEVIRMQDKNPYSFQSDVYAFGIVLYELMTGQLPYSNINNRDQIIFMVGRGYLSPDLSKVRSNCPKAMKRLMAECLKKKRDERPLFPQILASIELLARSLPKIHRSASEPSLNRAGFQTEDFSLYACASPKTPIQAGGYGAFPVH

As to `CC(C)(C)c1nc(-c2cccc(NS(=O)(=O)c3cc(F)ccc3F)c2F)c(-c2ccnc(NCC(F)(F)F)n2)s1` [Example 94, N-[3-(2-(1,1-Dimethylethyl)-5-{2-[(2,2,2-trifluoroethyl)amino]-4-pyrimidinyl}-1,3-thiazol-4-yl)-2-fluorophenyl]-2,5-difluorobenzenesulfonamide], the pIC50 was 6.00 to 7.00 in assay [1] (setting [4]); 6.00 to 7.00 in assay [1] (setting [5]); over 7.00 in assay [2] (setting [6]); 6.00 to 7.00 in assay [3] (setting [8]); 6.00 to 7.00 in assay [3] (setting [9]). Moreover, the IC50 in assay [2] (setting [7]) is 3.16 to 31.6 nM.
On to `CC(C)c1nc(-c2ccc(F)c(NS(=O)(=O)c3c(F)cccc3F)c2)c(-c2ccnc(NCCCN3CCCC3=O)n2)s1` [Example 95, 2,6-Difluoro-N-{2-fluoro-5-[2-(1-methylethyl)-5-(2-{[3-(2-oxo-1-pyrrolidinyl)propyl]amino}-4-pyrimidinyl)-1,3-thiazol-4-yl]phenyl}benzenesulfonamide], for which the pIC50 in assay [1] (setting [4]) was 6.00 to 7.00; in assay [1] (setting [5]), 6.00 to 7.00; in assay [2] (setting [6]), over 7.00; in assay [2] (setting [10]) it was 6.00 to 7.50; in assay [3] (setting [8]), 6.00 to 7.00; in assay [3] (setting [9]) it was 6.00 to 7.00.
For `CC(C)(C)c1nc(-c2cccc(NS(=O)(=O)c3cc(F)ccc3F)c2F)c(-c2ccnc(NCCCN3CCCC3=O)n2)s1` [Example 96, N-{3-[2-(1,1-Dimethylethyl)-5-(2-{[3-(2-oxo-1-pyrrolidinyl)propyl]amino}-4-pyrimidinyl)-1,3-thiazol-4-yl]-2-fluorophenyl}-2,5-difluorobenzenesulfonamide], the pIC50 in assay [1] (setting [4]) was over 7.00; in assay [1] (setting [5]), over 7.00; in assay [2] (setting [6]) it was over 7.00; in assay [2] (setting [10]), at least 8.50; in assay [3] (setting [8]), over 7.00; in assay [3] (setting [9]), over 7.00.
For `CC(C)(C)c1nc(-c2cccc(NS(=O)(=O)c3cc(F)ccc3F)c2F)c(-c2ccnc(NCCN3CCCC3=O)n2)s1` [Example 97, N-{3-[2-(1,1-Dimethylethyl)-5-(2-{[2-(2-oxo-1-pyrrolidinyl)ethyl]amino}-4-pyrimidinyl)-1,3-thiazol-4-yl]-2-fluorophenyl}-2,5-difluorobenzenesulfonamide], the pIC50 in assay [1] (setting [4]) was over 7.00; in assay [1] (setting [5]), 6.00 to 7.00; in assay [2] (setting [6]), over 7.00; in assay [2] (setting [10]), at least 8.50; in assay [3] (setting [8]) it was over 7.00; in assay [3] (setting [9]), over 7.00.
Turning to `CC(C)(C)c1nc(-c2cccc(NS(=O)(=O)c3cc(F)ccc3F)c2F)c(-c2ccnc(NCCNC(=O)CO)n2)s1` [Example 98, N-{2-([4-[4-(3-{[(2,5-Difluorophenyl)sulfonyl]amino}-2-fluorophenyl)-2-(1,1-dimethylethyl)-1,3-thiazol-5-yl]-2-pyrimidinyl}amino)ethyl]-2-hydroxyacetamide], the pIC50 in assay [1] (setting [4]) is over 7.00; in assay [1] (setting [5]), over 7.00; in assay [2] (setting [6]), over 7.00; in assay [2] (setting [10]) it was at least 8.50; in assay [3] (setting [8]), over 7.00; in assay [3] (setting [9]), over 7.00.
Take `CS(=O)(=O)N1CCN(c2nc(-c3cccc(NS(=O)(=O)c4cc(F)ccc4F)c3F)c(-c3ccnc(N)n3)s2)CC1` [Example 99, N-(3-{5-(2-Amino-4-pyrimidinyl)-2-[4-(methylsulfonyl)-1-piperazinyl]-1,3-thiazol-4-yl}-2-fluorophenyl)-2,5-difluorobenzenesulfonamide]: the pIC50 is 6.00 to 7.00 in assay [1] (setting [4]); 6.00 to 7.00 in assay [1] (setting [5]); over 7.00 in assay [2] (setting [6]); at least 8.50 in assay [2] (setting [10]); 6.00 to 7.00 in assay [3] (setting [8]); 6.00 to 7.00 in assay [3] (setting [9]).
As for `CS(=O)(=O)N1CCN(c2nc(-c3cccc(NS(=O)(=O)c4c(F)cccc4F)c3F)c(-c3ccnc(N)n3)s2)CC1` [Example 100, N-(3-{5-(2-Amino-4-pyrimidinyl)-2-[4-(methylsulfonyl)-1-piperazinyl]-1,3-thiazol-4-yl}-2-fluorophenyl)-2,6-difluorobenzenesulfonamide], the pIC50 in assay [1] (setting [4]) is 6.00 to 7.00; in assay [1] (setting [5]), 6.00 to 7.00; in assay [2] (setting [6]), over 7.00; in assay [3] (setting [8]) it was 6.00 to 7.00; in assay [3] (setting [9]), 6.00 to 7.00. Besides, in assay [2] (setting [7]), the IC50 is 3.16 to 31.6 nM.
